Data reported in US11254690B2, “PTEFb inhibiting macrocyclic compounds” (BAYER AKTIENGESELLSCHAFT, priority 2017, dated 2022).

Experiments:
CDK9/CycT1 = target: T1, CDK9/CycT1 (Homo sapiens, UniProt P50750); test: CDK9/CycT1 high ATP kinase assay (TR-FRET, 2 mM ATP); assay type: biochemical; settings: for Selectivity high ATP CDK9 over high ATP CDK2: IC50 (high ATP CDK2)/IC50 (high ATP CDK9): ratio from Methods 1b and 2b, minimal values for IC50s near the assay limit; for IC50: 2 mM ATP, Method 1b, lower limit for IC50s about 1-2 nM
T1 construct: Recombinant full-length His-tagged human CDK9 and CycT1; His; purchased Life Technologies PV4131; host or cells: insect cells
T1 sequence (P50750 whole entry): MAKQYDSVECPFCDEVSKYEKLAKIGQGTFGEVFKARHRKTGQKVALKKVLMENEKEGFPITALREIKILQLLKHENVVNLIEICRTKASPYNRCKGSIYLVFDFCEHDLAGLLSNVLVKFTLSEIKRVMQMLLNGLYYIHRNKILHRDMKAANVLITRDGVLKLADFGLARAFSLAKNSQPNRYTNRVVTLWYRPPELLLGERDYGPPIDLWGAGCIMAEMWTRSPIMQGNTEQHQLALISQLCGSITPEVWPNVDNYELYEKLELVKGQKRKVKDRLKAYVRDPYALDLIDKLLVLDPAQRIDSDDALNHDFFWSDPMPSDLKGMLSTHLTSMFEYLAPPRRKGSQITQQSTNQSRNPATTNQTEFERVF
T1 sequence (O60563 whole entry partner): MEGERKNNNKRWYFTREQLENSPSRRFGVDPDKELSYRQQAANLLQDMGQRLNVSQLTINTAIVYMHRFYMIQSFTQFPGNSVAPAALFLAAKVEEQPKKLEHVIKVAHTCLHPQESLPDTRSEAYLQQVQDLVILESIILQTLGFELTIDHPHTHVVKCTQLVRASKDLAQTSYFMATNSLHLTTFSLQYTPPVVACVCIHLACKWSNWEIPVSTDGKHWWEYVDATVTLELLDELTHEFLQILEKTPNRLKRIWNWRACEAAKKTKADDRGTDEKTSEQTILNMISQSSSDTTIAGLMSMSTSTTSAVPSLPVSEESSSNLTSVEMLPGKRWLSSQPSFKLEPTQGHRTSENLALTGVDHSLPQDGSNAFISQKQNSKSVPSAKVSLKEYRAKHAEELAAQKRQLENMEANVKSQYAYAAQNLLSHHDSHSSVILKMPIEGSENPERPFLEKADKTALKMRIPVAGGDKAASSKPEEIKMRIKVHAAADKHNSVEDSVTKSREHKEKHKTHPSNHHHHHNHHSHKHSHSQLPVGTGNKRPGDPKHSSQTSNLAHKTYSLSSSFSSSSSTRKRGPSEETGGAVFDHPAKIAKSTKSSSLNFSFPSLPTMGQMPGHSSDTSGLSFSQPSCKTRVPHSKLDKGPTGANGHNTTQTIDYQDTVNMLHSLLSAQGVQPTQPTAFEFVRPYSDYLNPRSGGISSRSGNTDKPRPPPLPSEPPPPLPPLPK
Method in brief: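 Full-length His-tagged human CDK9/CycT1 from insect cells (about 0.5 μg/ml) was preincubated with compound for 15 min at 22° C in 50 mM Tris/HCl pH 8.0, 10 mM MgCl2, 1.0 mM DTT. Phosphorylation was detected by TR-FRET with anti-RB(pSer807/pSer811) antibody, as the 665/622 nm ratio normalised to no-inhibitor and no-enzyme controls.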

CDK2/CycE = target: T2, CDK2/CycE (Homo sapiens, UniProt P24941); test: CDK2/CycE high ATP kinase assay (TR-FRET, 2 mM ATP); assay type: biochemical; settings: Method 2b
T2 construct: GST; purchased ProQinase GmbH (Freiburg, Germany); host or cells: insect cells (Sf9)
Method in brief: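 Recombinant GST-tagged human CDK2 and CycE from Sf9 cells (about 10 ng/ml), biotinylated peptide substrate, 2 mM ATP, Tris pH 8.0 buffer; compound pre-incubated 15 min at 22° C. Phospho-substrate detected by TR-FRET with anti-RB(pSer807/pSer811) antibody, 665/622 nm ratio; normalised to no-inhibitor and no-enzyme controls.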

Selectivity high ATP CDK9 over high ATP CDK2: IC50 (high ATP CDK2)/IC50 (high ATP CDK9) (CDK9/CycT1)	IC50 (CDK2/CycE) [nM]	IC50 (CDK9/CycT1) [nM]	SMILES
251	501	–	CC1CCCCOc2cc(ccc2F)-c2cc(ncc2F)Nc2cc(CS(C)(=N)=O)cc(n2)O1 (single isomer, unassigned) [Example 22, 3,21-difluoro-14-methyl-10-[(S-methylsulfonimidoyl)methyl]-13,19-dioxa-5,7,25-triazatetracyclo[18.3.1.1^2,6.1^8,12]hexacosa-1(24),2(26),3,5,8(25),9,11,20,22-nonaene]
385	6520	17	CS(=N)(=O)Cc1cc2cc(c1)OCCCCOc1c(F)ccc(c1F)-c1nc(ncc1F)N2 (racemic) [Example 8, (rac)-3,20,23-trifluoro-10-[(S-methylsulfonimidoyl)methyl]-13,18-dioxa-5,7,25-triazatetracyclo[17.3.1.1^2,6.1^8,12]pentacosa-1(23),2(25),3,5,8(24),9,11,19,21-nonaene]
3240	16200	5	CS(=N)(=O)Cc1cc2cc(c1)OCCCCCOc1cc(ccc1F)-c1nc(ncc1F)N2 (racemic) [Example 6, (rac)-3,21-difluoro-10-[(S-methylsulfonimidoyl)methyl]-13,19-dioxa-5,7,26-triazatetracyclo[18.3.1.1^2,6.1^8,12]hexacosa-1(24),2(26),3,5,8(25),9,11,20,22-nonaene]
132	132	–	CC1CCCOc2cc(ccc2F)-c2cc(ncc2F)Nc2cc(CS(C)(=N)=O)cc(n2)O1 (single isomer, unassigned) [Example 17, 3,20-difluoro-14-methyl-10-[(S-methylsulfonimidoyl)methyl]-13,18-dioxa-5,7,24-triazatetracyclo[17.3.1.1^2,6.1^8,12]pentacosa-1(23),2(25),3,5,8(24),9,11,19,21-nonaene]
105	737	7	CS(=N)(=O)Cc1cc2nc(c1)OCCCCOc1cc(ccc1F)-c1cc(ncc1F)N2 (racemic) [Example 2, (rac)-3,20-difluoro-10-[(S-methylsulfonimidoyl)methyl]-13,18-dioxa-5,7,24-triazatetracyclo[17.3.1.1^2,6.1^8,12]pentacosa-1(23),2(25),3,5,8(24),9,11,19,21-nonaene]
513	1540	3	CS(=N)(=O)Cc1cc2cc(c1)OCCCCOc1cc(ccc1F)-c1nc(ncc1F)N2 (racemic) [Example 4, (rac)-3,20-difluoro-10-[(S-methylsulfonimidoyl)methyl]-13,18-dioxa-5,7,25-triazatetracyclo[17.3.1.1^2,6.1^8,12]pentacosa-1(23),2(25),3,5,8(24),9,11,19,21-nonaene]
72	144	–	CC1CCCOc2cc(ccc2F)-c2cc(ncc2F)Nc2cc(CS(C)(=N)=O)cc(n2)O1 (single isomer, unassigned) [Example 16, 3,20-difluoro-14-methyl-10-[(S-methylsulfonimidoyl)methyl]-13,18-dioxa-5,7,24-triazatetracyclo[17.3.1.1^2,6.1^8,12]pentacosa-1(23),2(25),3,5,8(24),9,11,19,21-nonaene]
190	4750	25	CS(=N)(=O)Cc1cc2cc(c1)OCCCOc1cc(ccc1F)-c1nc(ncc1F)N2 (racemic) [Example 10, (rac)-3,19-difluoro-10-[(S-methylsulfonimidoyl)methyl]-13,17-dioxa-5,7,24-triazatetracyclo[16.3.1.1^2,6.1^8,12]tetracosa-1(22),2(24),3,5,8(23),9,11,18,20-nonaene]
>4000	> 20000	5	CC(C)(C)OC(=O)N=S(C)(=O)Cc1cc2cc(c1)OCCCCOc1cc(ccc1F)-c1nc(ncc1F)N2 (racemic) [Example 3, (rac)-tert-butyl [{[3,20-difluoro-13,18-dioxa-5,7,25-triazatetracyclo[17.3.1.1^2,6.1^8,12]pentacosa-1(23),2(25),3,5,8(24),9,11,19,21-nonaen-10-yl]methyl}(methyl)oxido-λ^6-sulfanylidene]carbamate]
>833	> 20000	24	CC(C)(C)OC(=O)N=S(C)(=O)Cc1cc2cc(c1)OCCCCCOc1cc(ccc1F)-c1nc(ncc1F)N2 (racemic) [Example 5, (rac)-tert-butyl [{[3,21-difluoro-13,19-dioxa-5,7,26-triazatetracyclo[18.3.1.1^2,6.1^8,12]hexacosa-1(24),2(26),3,5,8(25),9,11,20,22-nonaen-10-yl]methyl}(methyl)oxido-λ^6-sulfanylidene]carbamate]
1225	2450	–	CC1CCCCOc2cc(ccc2F)-c2cc(ncc2F)Nc2cc(CS(C)(=N)=O)cc(n2)O1 (single isomer, unassigned) [Example 21, 3,21-difluoro-14-methyl-10-[(S-methylsulfonimidoyl)methyl]-13,19-dioxa-5,7,25-triazatetracyclo[18.3.1.1^2,6.1^8,12]hexacosa-1(24),2(26),3,5,8(25),9,11,20,22-nonaene]
189	360	–	CC1CCCOc2cc(ccc2F)-c2cc(ncc2F)Nc2cc(CS(C)(=O)=O)cc(n2)O1 (racemic) [Example 28, 3,20-difluoro-14-methyl-10-[(methylsulfonyl)methyl]-13,18-dioxa-5,7,24-triazatetracyclo[17.3.1.1^2,6.1^8,12]pentacosa-1(23),2(25),3,5,8(24),9,11,19,21-nonaene]
